Test results from PMC6967409 (Frontiers in Chemistry, 2020).
Values joined by “and” are separate entries in the source; they are usually repeats but may differ in a detail not shown here. Identical values can stand only once. Like-named read-outs stand apart in the source and are kept apart here.

Key:
[1] = test system: P. falciparum NF54 early stage gametocytes (>90% stage I–III); assay: Gametocytocidal luciferase reporter assay, early stage, 48 h; assay type: cell-based; conditions: Plasmodium falciparum, NF54, 48 h, read-out: Early Stage (EG, Luc 48 h) IC50
Protocol: (§1) P. falciparum parasites (NF54, K1, and W2) were cultured in vitro in human erythrocytes (A^+ or O^+) under 90% N2, 5% CO2, and 5% O2 atmospheric conditions with supplemented RPMI 1640 media (Sigma Aldrich) containing Albumax II, as previously described (Verlinden et al., [2011]). This study was carried out according the guidelines set out by the Faculty of Health Sciences Ethical Committee, Ethical Clearance no. EC-120821/077. The protocol was approved by the Faculty of Health sciences ethical committee at the University of Pretoria. All subjects gave written informed consent in accordance with the Declaration of Helsinki. Parasite proliferation was monitored microscopically using Giemsa stained smears. Synchronized ring stage parasites (>95%) were obtained using a 5% D-sorbitol (Sigma Aldrich) treatment. […] Gametocyte cultures were kept stationary under 90% N2, 5% CO2, and 5% O2 atmospheric conditions at 37°C and treated with 50 mM N-acetyl-glucosamine (NAG) to eliminate residual invasion of asexual parasites.
(§2) Gametocytocidal activity was determined using the luciferase reporter line (Reader et al., [2015]) to derive dose responses with two-fold serial drug dilutions for 48 h against early stage gametocytes (day 5 post-induction population, >90% stage I–III) and 10-fold serial drug dilutions for 72 h against late stage gametocytes (day 10 post-induction population, >90% late stage IV–V) (2% gametocytemia, 2% hematocrit), at 37°C under 90% N2, 5% CO2, and 5% O2 atmospheric conditions.

P. falciparum W2 [2] = assay: Proliferative (SYBR Green I) assay, asexual parasites, 96 h; assay type: cell-based; conditions: Plasmodium falciparum, ±SEM
Protocol: as §1
(§3) Working solutions of the derivatives were prepared from a 10 mM stock solution in 100% DMSO in supplemented RPMI 1640 media containing Albumax II with a final DMSO concentration of <0.1%, previously determined as being non-toxic to intraerythrocytic asexual parasites and gametocytes. Dose responses were assayed using a two-fold serial drug dilution on in vitro >95% ring stage intraerythrocytic P. falciparum parasites at 37°C under 90% N2, 5% CO2, and 5% O2 atmospheric conditions, detecting both parasite lactate dehydrogenase (pLDH) activity as a metabolic marker following a 48 h drug exposure (1.5–2% parasitemia and 2% hematocrit; Makler et al., [1993]) and SYBR Green I fluorescence as proliferative marker following a 96 h drug exposure (1% parasitemia and 1% hematocrit). […] Data analysis was performed using GraphPad Prism 7.

P. falciparum K1 [3] = assay: as above; assay type: cell-based; conditions: Plasmodium falciparum, ±SEM
Protocol: as §1, §3

P. falciparum NF54 [4] = assay: as above; assay type: cell-based; conditions: Plasmodium falciparum, ±SEM
Protocol: as §1, §3

Cytotoxicity, MTT assay = assay type: cell-based; conditions: Chinese hamster, CHO cells
Protocol: (§4) Cytotoxicity (EC50) was determined against Chinese hamster ovarian (CHO) using a 3-(4,5-dimethylthiazol-2-yl)-2,5-diphenyltetrazolium bromide (MTT) assay and hepatocellular carcinoma cells (HepG2) using the Cytoselect LDH cytotoxicity assay kit (Cell Biolabs).

[5] = test system: P. berghei ANKA GFP-Luc-SMcon sporozoites; assay: P. berghei-luciferase liver stage bioluminescence assay (causal prophylactic mode) in HepG2-CD81 cells; assay type: cell-based, Plasmodium berghei
Protocol: (§5) Briefly, HepG2-CD81 cells were seeded into 1,536 well plates containing 50 nL of test and control compounds diluted into DMSO. […] Next, 2 μL of luciferin reagent (Promega BrightGlo) was added to each well and luciferase activity was detected using a Perkin Elmer Envision plate reader. […] In parallel, plates were processed without sporozoites for HepG2 toxicity measurements.
(§6) In continuation of the transmission blocking theme, it is important to establish activities against liver stage parasites. […] This assay uses ultra-high-throughput screening methods optimized for a 1536-well format and a HepG2 human hepatoma cell line. […] To establish selectivity of the compounds for the parasite in the liver stage of infection, cytotoxicity was determined by measuring bioluminescence from the reaction between free ATP of compound-treated, uninfected hepatocytes and a luciferase reporter system.

P. falciparum NF54 [6] = assay: Metabolic (parasite LDH) assay, asexual ring stage parasites, 48 h; assay type: cell-based; conditions: Plasmodium falciparum, pLDH, CQ-sensitive NF54
Protocol: as §1, §3

[7] = test system: P. falciparum ARC08-22 (4G); assay: T0 [3H]-hypoxanthine drug susceptibility assay, artemisinin-resistant clone (C580Y); assay type: cell-based, Plasmodium falciparum; conditions: preliminary, W2 as comparative sensitive strain
P. falciparum W2 [8] = assay: T0 [3H]-hypoxanthine drug susceptibility assay; assay type: cell-based; conditions: Plasmodium falciparum; for IC50: W2, read-out: W2 IC50; for IC90: W2, read-out: W2 IC90
[9] = HepG2 cytotoxicity bioluminescence assay (CellTiterGlo, ATP); assay type: cell-based, human; conditions: human, uninfected HepG2-CD81 cells
Protocol: as §5, §6

HepG2 cells = assay: as above; assay type: cell-based, human; conditions: two biological replicates listed in one cell; listed as 27 (WHN-15)
Protocol: as §5, §6

P. falciparum Dd2 [10] = assay: Metabolic (parasite LDH) assay, asexual ring stage parasites, 48 h; assay type: cell-based; conditions: Plasmodium falciparum, pLDH, Dd2 CQ, pyrimethamine resistant
Protocol: as §3

[11] = test system: P. falciparum NF54 late stage gametocytes (>90% stage IV and V); assay: Gametocytocidal luciferase reporter assay, late stage, 72 h; assay type: cell-based, Plasmodium falciparum; conditions: Plasmodium falciparum, NF54, 72 h, read-out: Late Stage (LG, Luc 72 h) IC50, >90% stage IV and V gametocytes, ±SEM
Protocol: as §1, §2

[12] = Cytotoxicity, Cytoselect LDH cytotoxicity assay kit; assay type: cell-based; conditions: human, HepG2 cells
Protocol: as §4

[13] = test system: P. falciparum NF54 late stage gametocytes (>90% stage IV and V); parameters: method as in Coertzen et al. (2018); conditions: read-out: Late Stage (LG, Luc 72 h) IC50; >90% stage IV and V gametocytes; ref Coertzen et al. (2018); cited from earlier work
P. falciparum W2 [14] = test system: P. falciparum W2; parameters: method as in Coertzen et al. (2018); conditions: SYBR Green I; ref Coertzen et al. (2018); read-out: Proliferative IC50 W2; cited from earlier work
P. falciparum NF54 [15] = test system: P. falciparum NF54; parameters: method as in Coertzen et al. (2018); conditions: SYBR Green I; ref Coertzen et al. (2018); read-out: Proliferative IC50 NF54; cited from earlier work
P. falciparum Dd2 [16] = test system: P. falciparum Dd2; parameters: method as in Coertzen et al. (2018); conditions: pLDH, 48 h; ref Coertzen et al. (2018); read-out: Metabolic IC50 Dd2; cited from earlier work
P. falciparum K1 [17] = test system: P. falciparum K1; parameters: method as in Coertzen et al. (2018); conditions: SYBR Green I; ref Coertzen et al. (2018); read-out: Proliferative IC50 K1; cited from earlier work
[18] = test system: P. falciparum NF54 early stage gametocytes (>90% stage I–III); parameters: method as in Coertzen et al. (2018); conditions: read-out: Early Stage (EG, Luc 48 h) IC50; >90% stage I–III gametocytes; ref Coertzen et al. (2018); cited from earlier work
P. falciparum NF54 [19] = test system: P. falciparum NF54; parameters: method as in Coertzen et al. (2018); conditions: pLDH, 48 h; ref Coertzen et al. (2018); read-out: Metabolic IC50 NF54; cited from earlier work
[20] = test system: Chinese hamster ovarian (CHO) cells; conditions: cited from earlier work

SMILES	IC50 (P. falciparum W2 [8]) [nM]	IC90 (P. falciparum W2 [8]) [nM]	IC50 [13] [nM]	IC50 (P. falciparum W2 [14]) [nM]	IC50 (P. falciparum NF54 [15]) [nM]	IC50 (P. falciparum Dd2 [16]) [nM]	IC50 (P. falciparum K1 [17]) [nM]	IC50 [18] [nM]	IC50 (P. falciparum NF54 [19]) [nM]	further results
C[C@H]1[C@H](N2CCN(C(=O)c3ccc(C(F)(F)F)cc3)CC2)O[C@@H]2O[C@@]3(C)CC[C@H]4[C@H](C)CC[C@@H]1[C@@]24OO3 [Compound 27]	0.21 ± 0.04	0.41 ± 0.08	–	–	–	–	–	–	–	IC50 [1]: 43.7 ± 5.1 nM; IC50 (P. falciparum W2 [2]): 3 ± 0.4 nM; IC50 (P. falciparum K1 [3]): 3.5 ± 2.4 nM; IC50 (P. falciparum NF54 [4]): 3.4 ± 0.4 nM; EC50 (Cytotoxicity, MTT assay): 150 µM; Emax ([5]; Plasmodium berghei, 48 h, two biological replicates listed in one cell, read-out: P.berghei-Luciferase Liver Stage Bioluminescence Assay: Maximum measured (%)): 105%; IC50 ([5]; Plasmodium berghei, HepG2, 48 h, liver stage, HepG2 host cells, luciferase after 48 h, ±SD, read-out: P. berghei sporozoites IC50): 168 ± 55.2 nM; IC50 ([5]; Plasmodium berghei, two biological replicates listed in one cell, read-out: P.berghei-Luciferase Liver Stage Bioluminescence Assay: IC50): 129 nM; inhibition at 10 µM ([5]; Plasmodium berghei, Conc. 10 μM, read-out: P. berghei sporozoites Maximum inhibition %): 108 ± 4.24%; IC50 ([5]; two biological replicates listed in one cell, listed as 27 (WHN-15), read-out: P.berghei-Luciferase Liver Stage Bioluminescence Assay: IC50): 207 nM; IC50 (P. falciparum NF54 [6]): 0.49 ± 0.04 nM; susceptibility of ARC08-22 (4G) clone (in words) [7]: no indication of reduced susceptibility; IC50 at 72 h ([9]; two biological replicates listed in one cell): 8.91 µM; EC50 at 72 h ([9]; uninfected HepG2, ATP bioluminescence): 7.02 µM; HepG2 Cytotoxicity Bioluminescence Assay: Maximum measured (%) (HepG2 cells): 78.3% and 80.2%; IC50 (HepG2 cells): 5.12 µM; IC50 (P. falciparum Dd2 [10]): 13.2 ± 9.3 nM; IC50 [11]: 2.8 ± 1.8 nM; EC50 [12]: 136 nM
CC1CCC2C(C)C(N3CCNCC3)OC3OC4(C)CCC1C32OO4 (stereo not drawn) [DHA-piperazine 9]	–	–	25.7 ± 17.5	1.4 ± 0.7	3.1 ± 0.4	1.7 ± 0.2	1.9 ± 0.5	54.9 ± 5.11	3.2 ± 1.4	–
CN(C)c1ccc2nc3ccc(=[N+](C)C)cc-3sc2c1 [MB, methylene blue]	–	–	143 ± 16.7	5.13 ± 0.31	5 ± 0.8	12.6 ± 4	6.45 ± 0.3	95 ± 11.3	0.3 ± 0.8	EC50 [20]: 52.6 ± 4.5 µM
CC1CCC2C(C)C(N3CCN(C(=O)Nc4ccccc4)CC3)OC3OC4(C)CCC1C32OO4 (stereo not drawn) [Phenylurea 10]	0.12 ± 0.03	0.2 ± 0.03	–	1.7 ± 0.5	4.7 ± 1.5	7.5 ± 0.4	2.9 ± 0.6	83 ± 2	1.3 ± 0.8	EC50 ([20]; read-out: Cytotoxicity EC50 CHO, MTT assay, ref Coertzen et al. (2018)): 2.4 ± 1 µM
